Source: US20240059671A1, “TYROSINE KINASE 2 (TYK2) DEGRADATION COMPOUNDS AND METHODS OF USE” (CULLGEN (SHANGHAI), INC., priority 2020, published 2024)

Biological target: TYK2 (Homo sapiens, UniProt P29597)
Test: TYK2 protein degradation in MOLT-4 cells by immunoblotting
Format: cell-based
Design: endogenous in cells; host or cells: MOLT-4
Settings: MOLT-4 cells, 24 hours
Experimental: MOLT-4 cells were treated with compounds at 0.5 and 5 μM concentrations for 24 hours.
MOLT-4 cells were treated with CPD-038, CPD-039, and CPD-040 at 0.04, 0.2, 1, and 5 μM concentrations for 24 hours.
MOLT-4 or NOMO-1 cells were cultured at 37° C. with 5% CO2 in RPMI 1640 Medium supplemented with 10% fetal bovine serum. Cells were authenticated using the short tandem repeat (STR) assays. Mycoplasma test results were negative.
Cultured cells were washed with cold PBS once and lysed in cold RIPA buffer supplemented with protease inhibitors and phosphatase inhibitors (Beyotime Biotechnology). The solutions were then incubated at 4° C. for 30 minutes with gentle agitation to fully lyse cells. Cell lysates were centrifuged at 13,000 rpm for 10 minutes at 4° C. and pellets were discarded. Total protein concentrations in the lysates were determined by BCA assays (Beyotime Biotechnology). Cell lysates were mixed with Laemmli loading buffer to 1× and heated at 99° C. for 5 min. Proteins were resolved on SDS-PAGE and visualized by chemiluminescence. Images were taken by a ChemiDoc MP Imaging system (Bio-Rad). Protein bands were quantitated using the accompanied software provided by Bio-Rad.
The percentage of TYK2 protein degradation of each compound at 0.5 and 5 μM determined in MOLT-4 cells as described in Methods.

Chain of TYK2 (P29597 whole entry): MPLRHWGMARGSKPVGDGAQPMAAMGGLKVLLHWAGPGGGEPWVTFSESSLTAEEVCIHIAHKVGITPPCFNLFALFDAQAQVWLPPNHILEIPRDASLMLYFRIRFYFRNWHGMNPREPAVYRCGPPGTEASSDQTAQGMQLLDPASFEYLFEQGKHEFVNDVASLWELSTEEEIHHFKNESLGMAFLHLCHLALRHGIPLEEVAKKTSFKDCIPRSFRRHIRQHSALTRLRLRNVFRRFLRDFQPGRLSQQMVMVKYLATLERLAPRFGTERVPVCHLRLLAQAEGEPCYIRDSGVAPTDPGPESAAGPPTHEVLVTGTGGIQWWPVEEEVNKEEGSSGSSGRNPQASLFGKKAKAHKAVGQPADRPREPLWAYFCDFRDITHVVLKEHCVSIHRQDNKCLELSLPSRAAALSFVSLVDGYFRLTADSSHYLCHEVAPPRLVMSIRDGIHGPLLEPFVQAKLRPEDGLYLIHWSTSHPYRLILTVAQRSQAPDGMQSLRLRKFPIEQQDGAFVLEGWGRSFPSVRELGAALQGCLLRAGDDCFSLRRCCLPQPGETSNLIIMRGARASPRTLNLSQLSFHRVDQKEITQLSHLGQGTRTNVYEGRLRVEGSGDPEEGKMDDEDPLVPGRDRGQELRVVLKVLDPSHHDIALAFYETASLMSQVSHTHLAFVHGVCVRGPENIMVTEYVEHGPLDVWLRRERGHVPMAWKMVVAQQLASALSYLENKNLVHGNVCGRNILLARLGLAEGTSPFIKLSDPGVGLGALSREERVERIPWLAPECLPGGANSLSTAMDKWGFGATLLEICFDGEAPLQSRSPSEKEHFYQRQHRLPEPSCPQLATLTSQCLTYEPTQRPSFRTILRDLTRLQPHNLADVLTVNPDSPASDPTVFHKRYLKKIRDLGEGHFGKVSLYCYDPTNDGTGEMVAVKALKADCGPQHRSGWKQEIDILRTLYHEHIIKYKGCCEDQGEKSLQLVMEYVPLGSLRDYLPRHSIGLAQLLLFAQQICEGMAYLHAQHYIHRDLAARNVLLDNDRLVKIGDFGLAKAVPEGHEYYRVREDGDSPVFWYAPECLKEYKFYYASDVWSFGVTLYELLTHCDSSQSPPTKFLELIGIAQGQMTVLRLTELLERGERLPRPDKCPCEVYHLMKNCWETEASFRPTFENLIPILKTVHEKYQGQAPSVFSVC

TYK2 Degradation (0.5 μM)	TYK2 Degradation (5 μM)	Structure (SMILES)
≤20%	≤20%	CNC(=O)c1nnc(NC(=O)CNC(=O)CCOCCOCCOCCOCCOCCC(=O)N[C@H](C(=O)N2C[C@H](O)C[C@H]2C(=O)NCc2ccc(-c3scnc3C)cc2)C(C)(C)C)cc1Nc1cccc(-c2ncn(C)n2)c1OC [CPD-033, N^1—((S)-1-((2S,4R)-4-Hydroxy-2-((4-(4-methylthiazol-5-yl)benzyl)carbamoyl)pyrrolidin-1-yl)-3,3-dimethyl-1-oxobutan-2-yl)-N^19-(2-((5-((2-methoxy-3-(1-methyl-1H-1,2,4-triazol-3-yl)phenyl)amino)-6-(methylcarbamoyl)pyridazin-3-yl)amino)-2-oxoethyl)-4,7,10,13,16-pentaoxanonadecanediamide]
≤20%	≤20%	CNC(=O)c1nnc(NC(=O)CNC(=O)CCC(=O)N[C@H](C(=O)N2C[C@H](O)C[C@H]2C(=O)NCc2ccc(-c3scnc3C)cc2)C(C)(C)C)cc1Nc1cccc(-c2ncn(C)n2)c1OC [CPD-034, N^1—((S)-1-((2S,4R)-4-Hydroxy-2-((4-(4-methylthiazol-5-yl)benzyl)carbamoyl)pyrrolidin-1-yl)-3,3-dimethyl-1-oxobutan-2-yl)-N^4-(2-((5-((2-methoxy-3-(1-methyl-1H-1,2,4-triazol-3-yl)phenyl)amino)-6-(methylcarbamoyl)pyridazin-3-yl)amino)-2-oxoethyl)succinamide]
≤20%	≤20%	CNC(=O)c1nnc(NC(=O)CNC(=O)CCCC(=O)N[C@H](C(=O)N2C[C@H](O)C[C@H]2C(=O)NCc2ccc(-c3scnc3C)cc2)C(C)(C)C)cc1Nc1cccc(-c2ncn(C)n2)c1OC [CPD-035, N^1—((S)-1-((2S,4R)-4-Hydroxy-2-((4-(4-methylthiazol-5-yl)benzyl)carbamoyl)pyrrolidin-1-yl)-3,3-dimethyl-1-oxobutan-2-yl)-N^5-(2-((5-((2-methoxy-3-(1-methyl-1H-1,2,4-triazol-3-yl)phenyl)amino)-6-(methylcarbamoyl)pyridazin-3-yl)amino)-2-oxoethyl)glutaramide]
≤20%	40%	CNC(=O)c1nnc(NC(=O)CNC(=O)CCCCC(=O)N[C@H](C(=O)N2C[C@H](O)C[C@H]2C(=O)NCc2ccc(-c3scnc3C)cc2)C(C)(C)C)cc1Nc1cccc(-c2ncn(C)n2)c1OC [CPD-036, N^1-((S)-1-((2S,4R)-4-Hydroxy-2-((4-(4-methylthiazol-5-yl)benzyl)carbamoyl)pyrrolidin-1-yl)-3,3-dimethyl-1-oxobutan-2-yl)-N^6-(2-((5-((2-methoxy-3-(1-methyl-1H-1,2,4-triazol-3-yl)phenyl)amino)-6-(methylcarbamoyl)pyridazin-3-yl)amino)-2-oxoethyl)adipamide]
≤20%	30%	CNC(=O)c1nnc(NC(=O)CNC(=O)CCCCCC(=O)N[C@H](C(=O)N2C[C@H](O)C[C@H]2C(=O)NCc2ccc(-c3scnc3C)cc2)C(C)(C)C)cc1Nc1cccc(-c2ncn(C)n2)c1OC [CPD-037, N^1—((S)-1-((2S,4R)-4-Hydroxy-2-((4-(4-methylthiazol-5-yl)benzyl)carbamoyl)pyrrolidin-1-yl)-3,3-dimethyl-1-oxobutan-2-yl)-N^7-(2-((5-((2-methoxy-3-(1-methyl-1H-1,2,4-triazol-3-yl)phenyl)amino)-6-(methylcarbamoyl)pyridazin-3-yl)amino)-2-oxoethyl)heptanediamide]
50%	30%	CNC(=O)c1nnc(NC(=O)CNC(=O)CCCCCCCCCC(=O)N[C@H](C(=O)N2C[C@H](O)C[C@H]2C(=O)NCc2ccc(-c3scnc3C)cc2)C(C)(C)C)cc1Nc1cccc(-c2ncn(C)n2)c1OC [CPD-041, N^1—((S)-1-((2S,4R)-4-Hydroxy-2-((4-(4-methylthiazol-5-yl)benzyl)carbamoyl)pyrrolidin-1-yl)-3,3-dimethyl-1-oxobutan-2-yl)-N^11-(2-((5-((2-methoxy-3-(1-methyl-1H-1,2,4-triazol-3-yl)phenyl)amino)-6-(methylcarbamoyl)pyridazin-3-yl)amino)-2-oxoethyl)undecanediamide]
